# Patent US20100285443A1, “Diagnostic Methods for Diseases Caused by a HPV Infection Comprising Determining the Methylation Status of the HPV Genome” (OncoMethylome Sciences SA, priority 2006, published 2010)
# What was measured:
# HPV16 genome = test: DNA methylation of the HPV16 genome (bisulfite genomic sequencing); assay type: cell-based
# From the text: To determine the methylation pattern of all […] genes, Bisulfite Genomic Sequencing and Methylation-specific PCR (MSP) were used. Essentially, both detection methods use the C to T conversion by bisulfite when the cytosine is not methylated. The Primers used are described in Table 1 (Bisulfite genomic sequencing—SEQ ID NOs 1 to 42) and Table 2 (Methylation-specific PCR—SEQ ID NOs 43 to 46).
# Thus, the viral genome is methylated by the host human cellular DNMTs. Because the integration of HPV16 in the human genome occurs in most cervical tumors and a significant proportion of premalignant lesions, we can consider that human DNMTs might recognize these sequences as “foreign” DNA that needs to be methylated. Indeed in our study, we have confirmed by FISH analyses that the HPV16 genome is integrated in the host cell DNA in CaSki and SiHa.
# The described HPV16 DNA methylomes also reflect the proposed expression patterns of the virus in cervical tumorigenesis, characterized by a significant overexpression of E6 and E7 in the carcinomas. […] This event is particularly observed for the E1/E2 region. The protein E2 is an inhibitor of cell proliferation by regulating the viral URR, repressing the E6 and E7 oncoproteins and ultimately causing cell cycle arrest at G2 (Frattini 1997 EMBO J). Thus, the genomic loss of E2 could contribute to the progression of the disease. […]
# E6 and E7 = test: Expression of HPV-16 E6 and E7 oncoproteins (Western blotting); assay type: cell-based, HPV16; details: after induced hypomethylation of the E2-binding sites
# From the text: The detection of the expression of viral oncogenic proteins was realized by Western blotting technique using commercially available antibodies, raised against E6 and E7.
# (§1) The described HPV16 DNA methylomes also reflect the proposed expression patterns of the virus in cervical tumorigenesis, characterized by a significant overexpression of E6 and E7 in the carcinomas. […] This event is particularly observed for the E1/E2 region. The protein E2 is an inhibitor of cell proliferation by regulating the viral URR, repressing the E6 and E7 oncoproteins and ultimately causing cell cycle arrest at G2 (Frattini 1997 EMBO J). Thus, the genomic loss of E2 could contribute to the progression of the disease. […] We observe instead methylation of the E2-binding sites at the URR region that are associated with high level of expression of the oncoproteins E6 and E7. Most important, we show by chromatin immunoprecipitation (ChIP) that the E2 viral protein cannot bind to the methylated E2-binding sites at the URR region, and thus leads to E6 and E7 overexpression.
# [1] = tested on: E2-binding sites at the URR region; test: Chromatin immunoprecipitation (ChIP) of E2 viral protein at the E2-binding sites of the URR; assay type: cell-based; details: after induced hypomethylation of the E2-binding sites
# From the text: as §1
smiles,measurement,setting,value
Nc1ncn([C@H]2C[C@H](O)[C@@H](CO)O2)c(=O)n1 [5-aza-2′-deoxycytidine],methylation of the E2-binding sites at the URR region,HPV16 genome,hypomethylation events
same,E6 and E7 expression,E6 and E7,marked reduction
same,recruitment of E2 to its URR binding sites,[1],recruitment of E2 to its URR binding sites
